Data as given in patent US8222247B2, “Modulators of glucocorticoid receptor, AP-1, and/or NF-kappabeta activity and use thereof” (Bristol-Myers Squibb Company, priority 2006, dated 2012).
Like-named read-outs stand apart in the source and are kept apart here.

Tested on: AP-1 induced transcriptional activity
Assay: Cellular Transrepressional Assay (AP-1 luciferase reporter in A549 cell, PMA activated)
Format: cell-based
Conditions: pAP-1-Luc; for Emax / AP-1 Max % inh (Cellular Transrepression Assay): maximum inhibition, PMA; for Emax: read-out: AP-1 Max % inh (Cellular Transrepression Assay); for EC50: 10 ng/ml PMA, 7 hours, read-out: AP-1 EC50, nM (Cellular Transrepression Assay)
Procedure: Cellular Transrepressional Assay
To measure the ability of test molecules to inhibit AP-1 induced transcriptional activity we utilized an A549 cell which was stably transfected with a plasmid containing 7×AP-1 DNA binding sites (pAP-1-Luc plasmid, Stratagene Co. La Jolla, Calif.) followed by the gene for luciferase. Cells were activated with 10 ng/ml of phorbol myristic acid (PMA) plus or minus test molecules for 7 hours. After 7 hours a luciferase reagent was added to measure luciferase enzymatic activity in the cell. After a 10 minute incubation of luciferase reagent with cells, luminescence was measured in a TopCount luminescence counter. Repression of AP-1 activity was calculated as the percentage decrease in the signal induced by PMA alone. Test molecules were analyzed in the concentration range from 0.1 nM to 40 μM. EC50s were determined by using standard curve fitting methods such as Excel fit (Microsoft Co.). An EC50 is the test molecule concentration at which there is a 50% repression of the maximal inhibition of transcription, i.e. a 50% reduction of AP-1 activity.

SMILES	EC50 (Homo sapiens, A549, 7 h) [nM]	EC50 [nM]	Emax (Homo sapiens, A549, 7 h) [%]	AP-1 Max % inh (Cellular Transrepression Assay) [% inh]
CC(C)(C(=O)Nc1nncs1)[C@@H](c1cccc(F)c1)c1ccc(-c2ccc(C(=O)N3CCOCC3)cc2)s1 [Example 64, (3R)-3-(3-Fluorophenyl)-2,2-dimethyl-3-(5-(4-(4-morpholinylcarbonyl)phenyl)-2-thienyl)-N-1,3,4-thiadiazol-2-ylpropanamide]	3.04	–	53.8	–
CN(C)C(=O)c1ccc(-c2ccc([C@H](c3cccc(F)c3)C(C)(C)C(=O)Nc3nncs3)s2)cc1 [Example 65, 4-(5-((1R)-1-(3-fluorophenyl)-2,2-dimethyl-3-oxo-3-(1,3,4-thiadiazol-2-ylamino)propyl)-2-thienyl)-N,N-dimethylbenzamide]	7	–	49.6	–
CN(C)C(=O)c1ccc(-c2ccc([C@H](c3cccc(F)c3)C(C)(C)C(=O)Nc3nncs3)s2)cc1Cl [Example 66, 2-chloro-4-(5-((1R)-1-(3-fluorophenyl)-2,2-dimethyl-3-oxo-3-(1,3,4-thiadiazol-2-ylamino)propyl)-2-thienyl)-N,N-dimethylbenzamide]	5.16	–	50.4	–
CC(C)(C(=O)Nc1nncs1)[C@@H](c1cccc(F)c1)c1ccc(-c2ccc(C(=O)N3CCOCC3)c(Cl)c2)s1 [Example 67, (3R)-3-(5-(3-chloro-4-(4-morpholinylcarbonyl)phenyl)-2-thienyl)-3-(3-fluorophenyl)-2,2-dimethyl-N-1,3,4-thiadiazol-2-ylpropanamide]	12.8	–	51.2	–
CCN(C)C(=O)c1ccc(-c2ccc([C@H](c3cccc(F)c3)C(C)(C)C(=O)Nc3nncs3)s2)cc1 [Example 68, N-ethyl-4-(5-((1R)-1-(3-fluorophenyl)-2,2-dimethyl-3-oxo-3-(1,3,4-thiadiazol-2-ylamino)propyl)-2-thienyl)-N-methylbenzamide]	7.31	–	49.4	–
CCN(CC)C(=O)c1ccc(-c2ccc([C@H](c3cccc(F)c3)C(C)(C)C(=O)Nc3nncs3)s2)cc1Cl [Example 70, 2-chloro-N,N-diethyl-4-(5-((1R)-1-(3-fluorophenyl)-2,2-dimethyl-3-oxo-3-(1,3,4-thiadiazol-2-ylamino)propyl)-2-thienyl)benzamide]	833	–	23	–
CC(C)(C(=O)Nc1nncs1)[C@@H](c1cccc(F)c1)c1ccc(-c2ccc(C(=O)N3CCC(F)(F)C3)cc2)s1 [Example 79, (3R)-3-(5-(4-((3,3-difluoro-1-pyrrolidinyl)carbonyl)phenyl)-2-thienyl)-3-(3-fluorophenyl)-2,2-dimethyl-N-1,3,4-thiadiazol-2-ylpropanamide]	30.3	–	42.6	–
CCN(C)C(=O)c1ccc(-c2ccc([C@H](c3cccc(F)c3)C(C)(C)C(=O)Nc3nncs3)s2)cc1F [Example 80, N-ethyl-2-fluoro-4-(5-((1R)-1-(3-fluorophenyl)-2,2-dimethyl-3-oxo-3-(1,3,4-thiadiazol-2-ylamino)propyl)-2-thienyl)-N-methylbenzamide]	34.7	–	33.6	–
CC(C)(C(=O)Nc1nncs1)[C@@H](c1cccc(F)c1)c1ccc(-c2ccc(C(=O)N3CCOCC3)c(F)c2)s1 [Example 83, (3R)-3-(5-(3-Fluoro-4-(4-morpholinylcarbonyl)phenyl)-2-thienyl)-3-(3-fluorophenyl)-2,2-dimethyl-N-1,3,4-thiadiazol-2-ylpropanamide]	16.6	–	32.7	–
CN(C)C(=O)c1ccc(-c2ccc(C(c3ccccc3)C(C)(C)C(=O)Nc3nncs3)s2)cc1Cl (centres unmarked) [Example 86, 2-chloro-4-(5-(2,2-dimethyl-3-oxo-1-phenyl-3-(1,3,4-thiadiazol-2-ylamino)propyl)-2-thienyl)-N,N-dimethylbenzamide]	–	53.9	–	36.20

Now from value to compound, other results behind:

EC50 (Homo sapiens, A549, 7 h) [nM]	EC50 [nM]	SMILES	Emax (Homo sapiens, A549, 7 h) [%]	AP-1 Max % inh (Cellular Transrepression Assay) [% inh]
8.49	–	CN(C)C(=O)c1ccc(-c2ccc(C(c3ccccc3)C(C)(C)C(=O)Nc3nncs3)s2)cc1 (centres unmarked) [Example 87, 4-(5-(2,2-dimethyl-3-oxo-1-phenyl-3-(1,3,4-thiadiazol-2-ylamino)propyl)-2-thienyl)-N,N-dimethylbenzamide]	41.1	–
–	15.7	CCN(C)C(=O)c1ccc(-c2ccc(C(c3ccccc3)C(C)(C)C(=O)Nc3nncs3)s2)cc1 (centres unmarked) [Example 88, 4-(5-(2,2-dimethyl-3-oxo-1-phenyl-3-(1,3,4-thiadiazol-2-ylamino)propyl)-2-thienyl)-N-ethyl-N-methylbenzamide]	–	43.56
2.41	–	CC(C)(C(=O)Nc1nncs1)C(c1cc(F)cc(F)c1)c1ccc(-c2ccc(C(=O)N3CCOCC3)cc2)s1 (centres unmarked) [Example 89, 3-(3,5-difluorophenyl)-2,2-dimethyl-3-(5-(4-(4-morpholinylcarbonyl)phenyl)-2-thienyl)-N-1,3,4-thiadiazol-2-ylpropanamide]	36.7	–
20.6	–	CN(C)C(=O)c1ccc(-c2ccc(C(c3cc(F)cc(F)c3)C(C)(C)C(=O)Nc3nncs3)s2)cc1 (centres unmarked) [Example 90, 4-(5-(1-(3,5-difluorophenyl)-2,2-dimethyl-3-oxo-3-(1,3,4-thiadiazol-2-ylamino)propyl)-2-thienyl)-N,N-dimethylbenzamide]	32.7	–
71.1	–	C[C@@H](C(=O)Nc1nncs1)[C@@H](c1cccc(F)c1)c1ccc(Br)s1 [Example 96, (2R,3S)-3-(5-bromo-2-thienyl)-3-(3-fluorophenyl)-2-methyl-N-1,3,4-thiadiazol-2-ylpropanamide]	27.4	–
15.9	–	CCN(C)C(=O)c1ccc(-c2ccc([C@@H](c3cccc(F)c3)[C@@H](C)C(=O)Nc3nncs3)s2)cc1 [Example 107, N-ethyl-4-(5-((1R,2R)-1-(3-fluorophenyl)-2-methyl-3-oxo-3-(1,3,4-thiadiazol-2-ylamino)propyl)-2-thienyl)-N-methylbenzamide]	52.5	–
8.39	–	C[C@@H](C(=O)Nc1nncs1)[C@H](c1cccc(F)c1)c1ccc(-c2ccc(C(=O)N3CCOCC3)cc2)s1 [Example 109, (2R,3R)-3-(3-fluorophenyl)-2-methyl-3-(5-(4-(4-morpholinylcarbonyl)phenyl)-2-thienyl)-N-1,3,4-thiadiazol-2-ylpropanamide]	57.5	–
24.6	–	C[C@@H](C(=O)Nc1nncs1)[C@H](c1cccc(F)c1)c1ccc(-c2ccc(C(=O)N(C)C)c(Cl)c2)s1 [Example 110, 2-Chloro-4-(5-((1R,2R)-1-(3-fluorophenyl)-2-methyl-3-oxo-3-(1,3,4-thiadiazol-2-ylamino)propyl)-2-thienyl)-N,N-dimethylbenzamide]	47	–
21.2	–	C[C@@H](C(=O)Nc1nncs1)[C@H](c1cccc(F)c1)c1ccc(-c2ccc(C(=O)N3CCOCC3)c(Cl)c2)s1 [Example 111, (2R,3R)-3-(5-(3-chloro-4-(4-morpholinylcarbonyl)phenyl)-2-thienyl)-3-(3-fluorophenyl)-2-methyl-N-1,3,4-thiadiazol-2-ylpropanamide]	53.3	–
18.5	–	C[C@@H](C(=O)Nc1nncs1)[C@H](c1cccc(F)c1)c1ccc(-c2ccc(C(=O)N(C)C)c(F)c2)s1 [Example 112, 2-fluoro-4-(5-((1R,2R)-1-(3-fluorophenyl)-2-methyl-3-oxo-3-(1,3,4-thiadiazol-2-ylamino)propyl)-2-thienyl)-N,N-dimethylbenzamide]	54	–
17.9	–	CC(C)Oc1ccc(-c2ccc([C@@H](c3cccc(F)c3)[C@@H](C)C(=O)Nc3nncs3)s2)cc1 [Example 113, (2R,3R)-3-(3-fluorophenyl)-3-(5-(4-isopropoxyphenyl)-2-thienyl)-2-methyl-N-1,3,4-thiadiazol-2-ylpropanamide]	37.8	–
45.5	–	CC(C)Cc1ccc(-c2ccc([C@@H](c3cccc(F)c3)[C@@H](C)C(=O)Nc3nncs3)s2)cc1 [Example 114, (2R,3R)-3-(3-fluorophenyl)-3-(5-(4-isobutylphenyl)-2-thienyl)-2-methyl-N-1,3,4-thiadiazol-2-ylpropanamide]	36.6	–
31	–	C[C@@H](C(=O)Nc1nncs1)[C@H](c1cccc(F)c1)c1ccc(-c2ccc(C(=O)N3CCCC3)c(Cl)c2)s1 [Example 115, (2R,3R)-3-(5-(3-chloro-4-(1-pyrrolidinylcarbonyl)phenyl)-2-thienyl)-3-(3-fluorophenyl)-2-methyl-N-1,3,4-thiadiazol-2-ylpropanamide]	39.1	–
67.7	–	C[C@@H](C(=O)Nc1nncs1)[C@H](c1cccc(F)c1)c1ccc(-c2ccc(C(=O)N3CCCC3)c(F)c2)s1 [Example 116, (2R,3R)-3-(3-fluorophenyl)-3-(5-(3-fluoro-4-(1-pyrrolidinylcarbonyl)phenyl)-2-thienyl)-2-methyl-N-1,3,4-thiadiazol-2-ylpropanamide]	40.8	–
14.4	–	C[C@@H](C(=O)Nc1nncs1)[C@H](c1cccc(F)c1)c1ccc(-c2ccc(C(=O)N(C)C)cc2)s1 [Example 117, 4-(5-((1R,2R)-1-(3-fluorophenyl)-2-methyl-3-oxo-3-(1,3,4-thiadiazol-2-ylamino)propyl)-2-thienyl)-N,N-dimethylbenzamide]	56.5	–
